Data: US10710951B2, “Pharmaceutical composition containing verbenone derivative for treating or preventing neurodegenerative disease” (KOREA UNIVERSITY RESEARCH AND BUSINESS FOUNDATION, priority 2012, dated 2020)

Tests used:
[1] = system: focal cerebral ischemia (MCAO) rats; assay: Focal cerebral ischemia model (MCAO); assay type: in vivo, SD rats; conditions: transient ischemia rat; 50 mg/kg intraperitoneal, twice (2 hours and 7 hours after brain infarction); FIG. 4
Procedure: Rats were anesthetized with 3.0% isoflurane in N2O and O2 (70:30 v/v) mixture via facemask and were maintained in 2% isoflurane. Throughout the experimental period, the body temperature was controlled and kept to 37° C.±0.3° C. using a rectal thermometer and a heating pad until the animals were sufficiently recovered from anesthesia after surgery. Focal cerebral ischemia was achieved by right-sided endovascular MCAO. Briefly, a 3-0 heat-blunted monofilament nylon suture (Ethicon Johnson & Johnson, Brussels, Belgium) were inserted into the lumen of the right external carotid artery stump and advanced 17.5 mm into the internal carotid artery to occlude the ostium of the MCA. The suture was removed after 1.5 hours to allow animals to recover. Operated controls were subjected to the same surgical procedures, except for MCAO. Physiological values were measured 15 minutes before MCAO and at 15 minutes after reperfusion, and mean blood pressure was monitored for 5 minutes using a blood pressure analyzer (MicroMed, Lousville, Ky.), and glucose were monitored using an analyzer (Ciba Corning Diagnostics Corp., Medfield, Mass.). […]
Rats were anesthetized with 3.5% chloral hydrate (5 ml/kg, intraperitoneal injection) and decapitated. […] The cross-sectional area of infarction between the bregma levels of +4 mm (anterior) and −6 mm (posterior) were determined with analysis software (OPTIMAS5.1 image analysis program, BioScanInc. Edmonds, Wash.). Brain infarct size was measured manually by outlining the margins of infarct areas. The total infarction volume (mm^3) was calculated according to the following equation 5 as disclosed in a document (J Neurosci Methods (1998) 84:9-16; J Cereb Blood Flow Metab (1990) 10:290-293), and compensated for brain edema. Cerebral edema was determined by the percent increase of the ipsilateral/contralateral hemisphere area as shown in the following equation 6. […]

[2] = Oxygen radical absorbance capacity (ORAC) assay; parameters: ORAC assay TE25 (trolox equivalents): dose or concentration left out as unconfirmed
Procedure: An ORAC assay was performed as disclosed in the literature (Huang, D. et al., J. Agric. Food Chem., 53, 1841-56, 2005).
AAPH (60 mM) and fluorescein (50 nM) were prepared in buffer (75 mM phosphate buffer, pH7.4) without a sample or a sample or a standard (Trolox). Each of the samples and the standard was suspended in a solution of 7% RMCD (randomly methylated beta-cyclodextrin) in 50% acetone. RMCD was used to increase the solubility of oil-soluble samples. Each sample was sufficiently mixed with fluorescein solution (66 nM, 190 μl) by shaking for 5 seconds. After incubation at 37° C. for 10 minutes, AAPH (500 mM, 30 μl) was quickly added to each sample, and a decrease in the fluorescence was measured using a fluorescence microplate reader (Ex=485 nm, Em=530 nm; SpectraMax GeminiEM, Molecular Devices, Sunnyvale, Calif.) at 37° C. at 5-min intervals for 9 hours. To quantify the activity of scavenging peroxyl radicals, AUC (area-under-the-curve) was calculated according to the following equation 2, and net AUC was calculated according to the following equation 3, and the TE (trolox equivalents) of each sample was calculated according to the following equation 4 based on a standard curve of net AUC plotted according to an increase in trolox concentration. AUC=(0.5+f1/f0+f2/f0+f3/f0+ . . . +fn−2/f0+fn−1/f0+fn/f0)×5, Equation 2
wherein f0 is the first fluorescence at 0 min and time I. Net AUC=AUCsample−AUCblank. Equation 3 TE(trolox equivalents) of each sample=[netAUCsample […]]/[net AUCtrolox […]]. Equation 4
The antioxidant activities of the verbenone derivatives of the present invention were measured by the following two different chemical reactions: (1) a single electron transfer-based assay that is a […] [DPPH] assay that measures a decrease in DPPH acting as a free radical generator and a termination probe; and (2) a hydrogen atom transfer assay that is an oxygen radical absorbance capacity [[…]] assay that measures the competitive reaction kinetics of a peroxyl radical generator (AAPH; 2,2′-azobis-(2-methylpropionamide)-dihydrochloride) and each sample acting as an antioxidant for oxidizable fluorescent probe (fluorescein).

For `COc1cc(C=CC2=CC(=O)[C@H]3C[C@@H]2C3(C)C)cc(O)c1O` [Compound 3f, (1S,5R)-4-(3,4-dihydroxy-5-methoxystyryl)-6,6-dimethylbicyclo[3.1.1]hept-3-en-2-one], the cerebral edema [1] was “significantly reduced”, the ischemic injury [1] was “significantly reduced” and the neurological deficit [1] was “significantly reduced”. The “ORAC assay Net AUC” value [2] was 99.06 ± 37.80 and the “ORAC assay TE25 (trolox equivalents)” value ([2]; net AUC sample / net AUC trolox) was 2.83 ± 0.22.
